These results are taken from patent EP4667458A1 (Kanaph Therapeutics Inc., priority 2023, dated 2024).

The assay addresses T1, KRAS^G12C::SOS1 (Homo sapiens, UniProt Q07889).
T1 sequence (Q07889 1-1333): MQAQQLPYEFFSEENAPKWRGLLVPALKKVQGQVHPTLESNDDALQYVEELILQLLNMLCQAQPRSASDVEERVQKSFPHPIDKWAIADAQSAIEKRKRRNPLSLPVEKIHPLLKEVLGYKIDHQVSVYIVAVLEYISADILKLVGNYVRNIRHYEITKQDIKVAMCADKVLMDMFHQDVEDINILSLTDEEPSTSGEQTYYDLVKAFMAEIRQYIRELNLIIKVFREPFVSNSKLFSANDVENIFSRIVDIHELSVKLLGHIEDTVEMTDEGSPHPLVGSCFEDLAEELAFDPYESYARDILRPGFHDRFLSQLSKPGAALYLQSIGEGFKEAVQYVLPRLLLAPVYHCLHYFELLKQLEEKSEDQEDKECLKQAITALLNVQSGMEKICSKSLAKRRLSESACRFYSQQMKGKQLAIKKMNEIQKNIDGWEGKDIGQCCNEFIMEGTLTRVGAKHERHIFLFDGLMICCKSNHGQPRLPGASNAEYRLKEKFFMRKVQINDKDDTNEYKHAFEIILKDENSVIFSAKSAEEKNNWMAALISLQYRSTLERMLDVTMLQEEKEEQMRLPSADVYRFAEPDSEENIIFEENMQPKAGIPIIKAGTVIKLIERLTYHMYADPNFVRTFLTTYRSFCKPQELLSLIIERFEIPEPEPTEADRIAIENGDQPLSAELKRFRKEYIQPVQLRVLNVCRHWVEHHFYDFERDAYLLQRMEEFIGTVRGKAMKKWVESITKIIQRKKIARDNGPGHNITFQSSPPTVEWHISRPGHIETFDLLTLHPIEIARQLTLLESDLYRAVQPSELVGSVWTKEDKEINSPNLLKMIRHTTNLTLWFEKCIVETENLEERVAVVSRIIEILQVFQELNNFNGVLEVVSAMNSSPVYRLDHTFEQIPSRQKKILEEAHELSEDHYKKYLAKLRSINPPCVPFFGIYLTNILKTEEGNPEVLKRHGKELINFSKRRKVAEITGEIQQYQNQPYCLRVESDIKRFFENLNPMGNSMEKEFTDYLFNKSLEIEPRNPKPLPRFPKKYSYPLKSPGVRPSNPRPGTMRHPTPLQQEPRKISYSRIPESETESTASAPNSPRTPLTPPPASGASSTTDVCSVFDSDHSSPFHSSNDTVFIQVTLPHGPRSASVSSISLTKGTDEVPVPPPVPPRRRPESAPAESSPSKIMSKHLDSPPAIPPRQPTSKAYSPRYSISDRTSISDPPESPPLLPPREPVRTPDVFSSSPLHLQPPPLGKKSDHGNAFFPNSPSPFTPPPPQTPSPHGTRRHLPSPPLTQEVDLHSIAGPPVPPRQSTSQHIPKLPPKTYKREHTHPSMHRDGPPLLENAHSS
Put plainly: KRAS G12C::SOS1 protein-protein interaction (PPI) inhibition assay (HTRF binding kit). For orientation: In TR-FRET formats the signal depends on donor and acceptor labels being close together.
The IC50 is the concentration that inhibits the measured activity by half. Lower therefore signals greater potency in that assay. Consider `COCC(F)(F)c1cccc([C@@H](C)NC(=O)c2ccc(=O)n(-c3cccc(-c4cnnn4C)c3)n2)c1F` [Example 397], for which the half-maximal inhibitory concentration (IC50) is under 1 µM. The same measure for `C[C@@H](NC(=O)c1ccc(=O)n(-c2cccc(-c3cnnn3C)c2)c1)c1cccc(C(F)(F)CO)c1F` [Example 335, N-[(1R)-1-[3-(1,1-difluoro-2-hydroxy-ethyl)-2-fluoro-phenyl]ethyl]-1-[3-(3-methyltriazol-4-yl)phenyl]-6-oxo-pyridine-3-carboxamide]: under 1 µM; for `C[C@@H](NC(=O)c1ccc(=O)n(-c2cccc(C(=O)N(C)C)c2F)n1)c1cc(N)cc(C(F)(F)F)c1` [Example 354, N-[(1R)-1-[3-amino-5-(trifluoromethyl)phenyl]ethyl]-1-[3-(dimethylcarbamoyl)-2-fluoro-phenyl]-6-oxo-pyridazine-3-carboxamide]: under 1 µM. The same measure for `C[C@@H](NC(=O)c1ccc(=O)n(-c2cccc(-c3ccnn3C)c2)n1)c1cc(N)cc(C(F)(F)F)c1` [Example 333, N-[(1R)-1-[3-amino-5-(trifluoromethyl)phenyl]ethyl]-1-[3-(2-methylpyrazol-3-yl)phenyl]-6-oxo-pyridazine-3-carboxamide]: under 1 µM; for `C[C@@H](NC(=O)c1ccc(=O)n(-c2ncccc2F)n1)c1cc(N)cc(C(F)(F)F)c1` [Example 388]: over 10 µM; for `C[C@@H](NC(=O)c1nn(-c2cccnc2F)c(=O)c2ccsc12)c1cc(N)cc(C(F)(F)F)c1` [Example 311, N-[(1R)-1-[3-amino-5-(trifluoromethyl)phenyl]ethyl]-5-(2-fluoro-3-pyridyl)-4-oxo-thieno[2,3-d]pyridazine-7-carboxamide]: under 1 µM. The same measure for `C[C@@H](NC(=O)c1ccc(=O)n(-c2ccc(F)cc2F)n1)c1cc(N)cc(C(F)(F)F)c1` [Example 362, N-[(1R)-1-[3-amino-5-(trifluoromethyl)phenyl]ethyl]-1-(2,4-difluorophenyl)-6-oxo-pyridazine-3-carboxamide]: under 1 µM. As for `Cc1c([C@@H](C)NC(=O)c2ccc(=O)n(-c3ccccc3F)n2)cccc1C(F)(F)CO` [Example 246, N-[(1R)-1-[3-(1,1-difluoro-2-hydroxy-ethyl)-2-methyl-phenyl]ethyl]-1-(2-fluorophenyl)-6-oxo-pyridazine-3-carboxamide], the IC50 is under 1 µM. Next, `COc1ccc(-n2cc(C(=O)N[C@H](C)c3cccc(C(F)(F)CO)c3F)ccc2=O)c(F)c1` [Example 179, N-[(1R)-1-[3-(1,1-difluoro-2-hydroxy-ethyl)-2-fluoro-phenyl]ethyl]-1-(2-fluoro-4-methoxyphenyl)-6-oxo-pyridine-3-carboxamide]: under 1 µM; `C[C@@H](NC(=O)c1ccc(=O)n(-c2cccc(C(=O)NCCN(C)C)c2)n1)c1cc(N)cc(C(F)(F)F)c1` [Example 251, N-[(1R)-1-[3-amino-5-(trifluoromethyl)phenyl]ethyl]-1-[3-[2-(dimethylamino)ethylcarbamoyl]phenyl]-6-oxo-pyridazine-3-carboxamide]: under 1 µM; `C[C@@H](NC(=O)c1nn(-c2ccccc2F)c(=O)c2sccc12)c1cc(N)cc(C(F)(F)F)c1` [Example 312, N-[(1R)-1-[3-amino-5-(trifluoromethyl)phenyl]ethyl]-6-(2-fluorophenyl)-7-oxo-thieno[2,3-d]pyridazine-4-carboxamide]: under 1 µM.

Turning to `C[C@@H](NC(=O)c1ccc(=O)n(C)n1)c1cc(N)cc(C(F)(F)F)c1` [Example 228, N-[(1R)-1-[3-amino-5-(trifluoromethyl)phenyl]ethyl]-1-methyl-6-oxo-pyridazine-3-carboxamide], the IC50 is under 1 µM. Next, `C[C@H](O)c1cccc(-n2nc(C(=O)N[C@H](C)c3cc(N)cc(C(F)(F)F)c3)ccc2=O)c1` [Example 174, N-[(1R)-1-[3-amino-5-(trifluoromethyl)phenyl]ethyl]-1-[3-[(1S)-1-hydroxyethyl]phenyl]-6-oxo-pyridazine-3-carboxamide]: under 1 µM; `COc1ccc(-n2nc(C(=O)N[C@H](C)c3cccc(C(F)(F)CO)c3F)c(C3CC3)cc2=O)c(F)c1` [Example 366, 4-cyclopropyl-N-[(1R)-1-[3-(1,1-difluoro-2-hydroxy-ethyl)-2-fluorophenyl]ethyl]-1-(2-fluoro-4-methoxy-phenyl)-6-oxopyridazine-3-carboxamide]: 1 to 10 µM; `COc1ccc(F)c(-n2cc(C(=O)N[C@H](C)c3cccc(C(F)(F)CO)c3F)ccc2=O)c1` [Example 177, N-[(1R)-1-[3-(1,1-difluoro-2-hydroxy-ethyl)-2-fluoro-phenyl]ethyl]-1-(2-fluoro-5-methoxyphenyl)-6-oxo-pyridine-3-carboxamide]: under 1 µM. Next, `C[C@@H](NC(=O)c1ccc(=O)n(-c2ccccc2F)n1)c1cccc(C#N)c1F` [Example 260, N-[(1R)-1-(3-cyano-2-fluoro-phenyl)ethyl]-1-(2-fluorophenyl)-6-oxo-pyridazine-3-carboxamide]: under 1 µM; `C[C@@H](NC(=O)c1ccc(=O)n(-c2ccccc2F)n1)c1cccc(C(F)(F)CN)c1F` [Example 243, N-[(1R)-1-[3-(2-amino-1,1-difluoro-ethyl)-2-fluoro-phenyl]ethyl]-1-(2-fluorophenyl)-6-oxo-pyridazine-3-carboxamide]: under 1 µM.

Regarding `Cc1ncc(-n2nc(C(=O)N[C@H](C)c3cc(N)cc(C(F)(F)F)c3)ccc2=O)cn1` [Example 161, N-[(1R)-1-[3-amino-5-(trifluoromethyl)phenyl]ethyl]-1-(2-methylpyrimidin-5-yl)-6-oxo-pyridazine-3-carboxamide], the IC50 is under 1 µM.

Turning to `C[C@@H](O)c1cccc(-n2nc(C(=O)N[C@H](C)c3cc(N)cc(C(F)(F)F)c3)ccc2=O)c1` [Example 173, N-[(1R)-1-[3-amino-5-(trifluoromethyl)phenyl]ethyl]-1-[3-[(1R)-1-hydroxyethyl]phenyl]-6-oxo-pyridazine-3-carboxamide], the IC50 is under 1 µM.

Compound `CNCc1cc2c(cc1-c1ccc([C@@H](C)NC(=O)c3ccc(=O)n(-c4ccccc4F)c3)s1)CC2` [Example 276, 1-(2-fluorophenyl)-N-[(1R)-1-[5-[4-(methylaminomethyl)-3-bicyclo[4.2.0]octa-1,3,5-trienyl]-2-thienyl]ethyl]-6-oxo-pyridine-3-carboxamide] showed an IC50 of under 1 µM. Next, `C[C@@H](NC(=O)c1ccc(=O)n(-c2ccc3cnn(C)c3c2F)n1)c1cc(N)cc(C(F)(F)F)c1` [Example 240, N-[(1R)-1-[3-amino-5-(trifluoromethyl)phenyl]ethyl]-1-(7-fluoro-1-methyl-1H-indazol-6-yl)-6-oxo-1,6-dihydropyridazine-3-carboxamide]: under 1 µM; `C[C@@H](NC(=O)c1ccc(=O)[nH]n1)c1cc(N)cc(C(F)(F)F)c1` [Example 221, N-[(1R)-1-[3-amino-5-(trifluoromethyl)phenyl]ethyl]-6-oxo-1H-pyridazine-3-carboxamide]: under 1 µM. The same measure for `CCNCc1ccc(F)cc1-c1ccc([C@@H](C)NC(=O)c2ccc(=O)n(-c3cccnc3F)n2)s1` [Example 289, N-[(1R)-1-[5-[2-(ethylaminomethyl)-5-fluorophenyl]-2-thienyl]ethyl]-1-(2-fluoro-3-pyridyl)-6-oxo-pyridazine-3-carboxamide]: under 1 µM; for `C[C@@H](NC(=O)c1ccc(=O)n(-c2cccc(-c3cnco3)c2)n1)c1cc(N)cc(C(F)(F)F)c1` [Example 343, N-[(1R)-1-[3-amino-5-(trifluoromethyl)phenyl]ethyl]-1-(3-oxazol-5-ylphenyl)-6-oxo-pyridazine-3-carboxamide]: under 1 µM; for `CNCc1ccccc1-c1ccc([C@@H](C)NC(=O)c2nn(-c3ccccc3F)c(=O)c3ccsc23)s1` [Example 269, 5-(2-fluorophenyl)-N-[(1R)-1-[5-[2-(methylaminomethyl)phenyl]-2-thienyl]ethyl]-4-oxo-thieno[2,3-d]pyridazine-7-carboxamide]: under 1 µM.
